Results: paper PMC5478727, “A Novel Small Molecule GDNF Receptor RET Agonist, BT13, Promotes Neurite Growth from Sensory Neurons in Vitro and Attenuates Experimental Neuropathy in the Rat” (Frontiers in Pharmacology, 2017)
pEC50, pIC50: −log10 of the molar value.

Key:
GFRα3/RET = target: T1, GFRα3/RET (Homo sapiens, UniProt P07949); experiment: Luciferase reporter-gene assay (PathDetect Elk-1), GFRα3/RET reporter cells; type: cell-based; conditions: GFRα3/RET reporter cell line
T1 construct: full-length human RET (long isoform) in pCR3.1; expressed in transfected cells; host or cells: MG87 murine fibroblasts (MG87RET + PathDetect Elk-1 + GFRα3)

TrkB = target: T2, TrkB (Rattus norvegicus, UniProt Q63604); experiment: Luciferase reporter-gene assay, TrkB reporter cells; type: cell-based; conditions: TrkB reporter cell line
T2 construct: expressed in transfected cells; host or cells: MG87 murine fibroblasts (MG87TrkB)

RET = target: T3, RET (Homo sapiens, UniProt P07949); experiment: RET phosphorylation assay in MG87RET fibroblasts (GFRα3/RET and GFP/RET); type: cell-based, murine; conditions: 25–50 μM; in the presence and absence of GFRα3 co-receptor
T3 construct: full-length human RET (long isoform) in pCR3.1; expressed in transfected cells; host or cells: MG87RET murine fibroblasts

[1] = system: Akt and Erk phosphorylation in MG87TrkA; experiment: Erk1/2 and Akt phosphorylation assay in MG87TrkA cells; type: cell-based, murine; conditions: BT13 10–100 μM, NGF positive control
Description: MG87RET, MG87TrkA, or MG87TrkB were plated on 35 mm tissue culture dishes 1–2 days before the experiment to achieve 90–95% of confluency of the cells at the day of stimulation with tested substances. If necessary, cells were transfected with 4 μg/well of GFRα1-, GFRα3-, or green fluorescent protein (GFP)-expressing plasmid using Lipofectamine 2000 (Invitrogen) for DNA delivery as described by manufacturer. Before the experiment cells were starved in serum-free DMEM containing 15 mM HEPES, pH 7.2 and 1% DMSO for 4 h and stimulated with BT13 or neurotrophic factors. Then cells were washed once with ice-cold PBS containing 1 mM Na3VO4 and 1 mM NaF and lysed on ice in 1 ml per well of RIPA-modified buffer (50 mM Tris-HCl, pH 7.4, 150 mM NaCl, 1 mM EDTA, 1% NP-40, 1% TX-100, 10% glycerol, EDTA-free protease inhibitor cocktail (Roche), 1 mM Na3VO4, 2.5 mg/ml of sodium deoxycholate, 1 mM NaF). Plates were incubated at +4°C on the horizontal shaker for 30 min with vigorous shaking. Afterwards, 80–100 μl aliquot was taken from each well to prepare whole cell lysates. This aliquot was mixed with equal volume of 2x Laemmli loading buffer (4% SDS, 20% glycerol, 10% 2-mercaptoethanol, 0.004% bromphenol blue, 0.125 M Tris HCl, pH 6.8) and boiled for 10 min at 100°C. Remaining cell lysates were used for immunoprecipitation of RET or Trk receptors. […]

CYP2C9 = target: T4, CYP2C9 (Homo sapiens, UniProt P11712); experiment: CYP inhibition, fluorescent assay; type: biochemical; conditions: read-out: Inhibition of CYP isoforms (IC50), CYP2C9
T4 construct: Cyathus Exquirere (contract laboratory)

CYP2D6 = target: T5, CYP2D6 (Homo sapiens, UniProt P10635); experiment: CYP inhibition, fluorescent assay; type: biochemical; conditions: read-out: Inhibition of CYP isoforms (IC50), CYP2D6
T5 construct: Cyathus Exquirere (contract laboratory)

cannabinoid receptor CB1 = cannabinoid receptor CB1 (Homo sapiens, UniProt P21554); experiment: CEREP CB1 (h) (agonist radioligand); type: binding; conditions: BT13 1 μM; Cat. No. 0036; average of duplicate; read-out: Percentage of inhibition/potentiation from control
dopamine receptor D2L = dopamine receptor D2L (Homo sapiens, UniProt P14416); experiment: CEREP D2L (h) (antagonist radioligand); type: binding; conditions: BT13 1 μM; Cat. No. 1405; average of duplicate; read-out: Percentage of inhibition/potentiation from control
GABA receptor GABAB(1b) = GABA receptor GABAB(1b) (Homo sapiens, UniProt Q9UBS5); experiment: CEREP GABAB(1b) (h) (antagonist radioligand); type: binding; conditions: read-out: Percentage of inhibition/potentiation from control
histamine receptor H1 = target: T6, histamine receptor H1 (Homo sapiens, UniProt P35367); experiment: CEREP H1 (h) (antagonist radioligand); type: binding; conditions: BT13 1 μM; Cat. No. 0870; average of duplicate; read-out: Percentage of inhibition/potentiation from control
T6 construct: purchased CEREP (contract assay) 0870

[2] = target: opioid receptor delta (DOP) (Homo sapiens, UniProt P41143); experiment: CEREP Delta (DOP) (h) (agonist radioligand); type: binding; conditions: BT13 1 μM; Cat. No. 0114; average of duplicate; read-out: Percentage of inhibition/potentiation from control
[3] = target: T7, monoamine oxidase A (MAO-A) (Rattus norvegicus, UniProt P21396); experiment: CEREP MAO-A (antagonist radioligand); type: binding; conditions: BT13 1 μM; Cat. No. 0443; average of duplicate; read-out: Percentage of inhibition/potentiation from control
T7 construct: purchased CEREP (contract assay) 0443

[4] = target: T8, Protein Serine/Threonine Phosphatase, PP2A (Homo sapiens, UniProt P67775); experiment: CEREP Protein Serine/Threonine Phosphatase, PP2A; type: biochemical; conditions: BT13 1 μM; Cat. No. 3953; average of duplicate; read-out: Percentage of inhibition/potentiation from control
T8 construct: purchased CEREP (contract assay) 3953

RET mRNA in DRGs = experiment: qPCR of RET mRNA in DRGs of animals with SNL; type: in vivo, rat; conditions: SNL rats; BT13-treated vs vehicle-treated
[5] = Solubility in the binding buffer; type: physicochemical; conditions: concentrations above 50 μM could not be tested
[6] = target: norepinephrine transporter (Homo sapiens, UniProt P23975); experiment: biochemical; conditions: read-out: Percentage of inhibition/potentiation from control

T1 sequence (P07949 29-1114): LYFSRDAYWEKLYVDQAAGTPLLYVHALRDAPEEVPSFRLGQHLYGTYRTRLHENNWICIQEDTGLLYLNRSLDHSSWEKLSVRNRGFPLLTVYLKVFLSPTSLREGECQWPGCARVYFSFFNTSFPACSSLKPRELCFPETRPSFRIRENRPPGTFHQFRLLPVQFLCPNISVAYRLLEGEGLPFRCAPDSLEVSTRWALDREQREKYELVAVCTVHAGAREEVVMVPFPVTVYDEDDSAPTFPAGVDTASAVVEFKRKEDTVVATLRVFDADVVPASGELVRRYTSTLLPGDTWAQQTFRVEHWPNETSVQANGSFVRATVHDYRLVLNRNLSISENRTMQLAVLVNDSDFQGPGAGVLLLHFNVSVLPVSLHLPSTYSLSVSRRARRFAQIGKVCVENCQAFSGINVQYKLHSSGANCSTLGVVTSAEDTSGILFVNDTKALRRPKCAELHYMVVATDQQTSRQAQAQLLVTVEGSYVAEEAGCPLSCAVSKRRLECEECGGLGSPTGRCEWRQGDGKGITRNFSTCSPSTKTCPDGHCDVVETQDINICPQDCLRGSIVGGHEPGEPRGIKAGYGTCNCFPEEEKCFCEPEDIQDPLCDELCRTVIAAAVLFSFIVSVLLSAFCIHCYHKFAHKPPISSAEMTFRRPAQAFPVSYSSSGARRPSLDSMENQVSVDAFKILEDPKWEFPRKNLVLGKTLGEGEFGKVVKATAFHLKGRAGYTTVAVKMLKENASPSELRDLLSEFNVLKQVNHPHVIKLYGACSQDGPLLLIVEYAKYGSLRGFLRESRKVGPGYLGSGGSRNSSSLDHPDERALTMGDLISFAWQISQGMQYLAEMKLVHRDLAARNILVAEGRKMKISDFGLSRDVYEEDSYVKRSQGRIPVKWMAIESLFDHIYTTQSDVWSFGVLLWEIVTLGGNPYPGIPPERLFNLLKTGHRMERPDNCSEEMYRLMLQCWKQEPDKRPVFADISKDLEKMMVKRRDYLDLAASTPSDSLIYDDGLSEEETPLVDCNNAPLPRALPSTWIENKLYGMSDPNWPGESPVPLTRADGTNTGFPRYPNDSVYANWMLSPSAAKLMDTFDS
Sequence of GABA receptor GABAB(1b) (Q9UBS5 1-844 isoform Q9UBS5-2): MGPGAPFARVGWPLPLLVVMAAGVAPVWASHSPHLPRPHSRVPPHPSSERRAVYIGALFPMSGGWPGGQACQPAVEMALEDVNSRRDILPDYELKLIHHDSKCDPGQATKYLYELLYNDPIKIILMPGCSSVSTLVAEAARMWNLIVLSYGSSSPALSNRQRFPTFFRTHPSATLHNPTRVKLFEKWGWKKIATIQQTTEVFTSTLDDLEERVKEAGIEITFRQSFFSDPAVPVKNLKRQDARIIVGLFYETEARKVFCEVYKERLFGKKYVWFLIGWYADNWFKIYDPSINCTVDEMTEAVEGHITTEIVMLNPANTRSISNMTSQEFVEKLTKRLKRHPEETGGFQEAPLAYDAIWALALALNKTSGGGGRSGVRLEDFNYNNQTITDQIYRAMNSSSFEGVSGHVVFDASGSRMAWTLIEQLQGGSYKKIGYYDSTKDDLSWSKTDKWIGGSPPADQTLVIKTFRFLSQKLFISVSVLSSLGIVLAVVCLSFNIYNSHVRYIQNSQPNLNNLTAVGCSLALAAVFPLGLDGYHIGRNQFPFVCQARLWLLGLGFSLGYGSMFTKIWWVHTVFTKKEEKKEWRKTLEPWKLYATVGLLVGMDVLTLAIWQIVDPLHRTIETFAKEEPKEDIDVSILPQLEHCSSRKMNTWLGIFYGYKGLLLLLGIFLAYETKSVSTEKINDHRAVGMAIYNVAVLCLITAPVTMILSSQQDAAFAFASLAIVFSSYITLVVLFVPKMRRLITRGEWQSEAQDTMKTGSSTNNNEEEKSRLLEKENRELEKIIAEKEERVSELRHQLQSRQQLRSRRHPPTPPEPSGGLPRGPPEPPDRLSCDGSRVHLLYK
Sequence of opioid receptor delta (DOP) (P41143 whole entry): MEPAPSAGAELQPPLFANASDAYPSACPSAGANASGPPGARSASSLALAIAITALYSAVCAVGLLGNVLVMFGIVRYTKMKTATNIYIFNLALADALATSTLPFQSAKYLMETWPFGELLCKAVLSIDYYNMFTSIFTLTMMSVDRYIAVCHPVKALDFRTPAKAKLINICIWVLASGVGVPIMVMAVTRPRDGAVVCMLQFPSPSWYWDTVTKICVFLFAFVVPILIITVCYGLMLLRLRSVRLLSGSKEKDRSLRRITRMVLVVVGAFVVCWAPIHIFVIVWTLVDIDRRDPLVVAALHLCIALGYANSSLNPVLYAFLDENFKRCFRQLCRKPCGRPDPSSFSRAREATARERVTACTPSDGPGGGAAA
T8 sequence (P67775 whole entry): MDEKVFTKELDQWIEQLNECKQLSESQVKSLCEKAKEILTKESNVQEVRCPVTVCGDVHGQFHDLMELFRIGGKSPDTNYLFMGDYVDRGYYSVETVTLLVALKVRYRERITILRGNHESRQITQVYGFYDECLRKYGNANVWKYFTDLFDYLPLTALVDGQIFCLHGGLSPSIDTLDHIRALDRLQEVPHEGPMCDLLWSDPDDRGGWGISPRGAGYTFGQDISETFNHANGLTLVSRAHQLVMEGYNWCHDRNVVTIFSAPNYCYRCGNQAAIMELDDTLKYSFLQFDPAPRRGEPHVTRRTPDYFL
Sequence of cannabinoid receptor CB1 (P21554 whole entry): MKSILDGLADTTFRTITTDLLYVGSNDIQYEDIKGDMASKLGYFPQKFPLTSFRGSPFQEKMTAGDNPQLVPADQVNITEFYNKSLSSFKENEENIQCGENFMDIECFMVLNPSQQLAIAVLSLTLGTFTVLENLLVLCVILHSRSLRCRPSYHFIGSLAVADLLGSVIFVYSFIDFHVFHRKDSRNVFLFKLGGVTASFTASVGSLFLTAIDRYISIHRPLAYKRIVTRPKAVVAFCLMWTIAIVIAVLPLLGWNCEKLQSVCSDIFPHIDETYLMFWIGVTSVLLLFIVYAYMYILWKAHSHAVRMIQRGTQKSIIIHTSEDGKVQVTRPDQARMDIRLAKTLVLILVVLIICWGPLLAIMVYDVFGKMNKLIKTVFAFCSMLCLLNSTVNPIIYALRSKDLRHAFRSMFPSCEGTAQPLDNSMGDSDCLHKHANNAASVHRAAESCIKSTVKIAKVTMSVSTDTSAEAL
T7 sequence (P21396 whole entry): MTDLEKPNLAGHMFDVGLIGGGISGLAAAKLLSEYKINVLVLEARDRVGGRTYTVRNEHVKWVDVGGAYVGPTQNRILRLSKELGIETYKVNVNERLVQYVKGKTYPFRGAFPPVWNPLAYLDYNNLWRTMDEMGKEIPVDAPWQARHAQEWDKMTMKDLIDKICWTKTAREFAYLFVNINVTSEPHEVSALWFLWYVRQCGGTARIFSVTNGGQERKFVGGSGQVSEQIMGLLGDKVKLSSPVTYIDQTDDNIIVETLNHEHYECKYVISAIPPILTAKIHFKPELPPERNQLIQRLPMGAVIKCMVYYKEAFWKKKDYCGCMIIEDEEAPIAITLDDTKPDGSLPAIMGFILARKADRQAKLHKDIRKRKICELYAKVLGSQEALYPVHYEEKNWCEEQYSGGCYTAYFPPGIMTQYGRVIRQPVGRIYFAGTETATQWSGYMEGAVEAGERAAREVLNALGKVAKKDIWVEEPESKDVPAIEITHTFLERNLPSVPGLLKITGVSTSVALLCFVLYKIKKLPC
T6 sequence (P35367 whole entry): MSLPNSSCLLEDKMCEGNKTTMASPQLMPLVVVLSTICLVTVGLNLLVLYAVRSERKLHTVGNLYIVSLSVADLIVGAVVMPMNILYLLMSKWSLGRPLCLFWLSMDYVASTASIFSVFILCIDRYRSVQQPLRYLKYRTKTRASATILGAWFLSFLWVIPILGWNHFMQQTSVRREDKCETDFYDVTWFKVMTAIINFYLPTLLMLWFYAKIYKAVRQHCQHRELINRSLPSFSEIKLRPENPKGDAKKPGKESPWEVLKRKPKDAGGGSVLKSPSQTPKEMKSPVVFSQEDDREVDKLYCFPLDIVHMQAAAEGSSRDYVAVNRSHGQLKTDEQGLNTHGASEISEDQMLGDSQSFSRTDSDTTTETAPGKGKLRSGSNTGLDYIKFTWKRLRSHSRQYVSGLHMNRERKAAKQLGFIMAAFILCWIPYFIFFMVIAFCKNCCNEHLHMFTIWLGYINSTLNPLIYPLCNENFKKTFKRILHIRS
T2 sequence (Q63604 32-821): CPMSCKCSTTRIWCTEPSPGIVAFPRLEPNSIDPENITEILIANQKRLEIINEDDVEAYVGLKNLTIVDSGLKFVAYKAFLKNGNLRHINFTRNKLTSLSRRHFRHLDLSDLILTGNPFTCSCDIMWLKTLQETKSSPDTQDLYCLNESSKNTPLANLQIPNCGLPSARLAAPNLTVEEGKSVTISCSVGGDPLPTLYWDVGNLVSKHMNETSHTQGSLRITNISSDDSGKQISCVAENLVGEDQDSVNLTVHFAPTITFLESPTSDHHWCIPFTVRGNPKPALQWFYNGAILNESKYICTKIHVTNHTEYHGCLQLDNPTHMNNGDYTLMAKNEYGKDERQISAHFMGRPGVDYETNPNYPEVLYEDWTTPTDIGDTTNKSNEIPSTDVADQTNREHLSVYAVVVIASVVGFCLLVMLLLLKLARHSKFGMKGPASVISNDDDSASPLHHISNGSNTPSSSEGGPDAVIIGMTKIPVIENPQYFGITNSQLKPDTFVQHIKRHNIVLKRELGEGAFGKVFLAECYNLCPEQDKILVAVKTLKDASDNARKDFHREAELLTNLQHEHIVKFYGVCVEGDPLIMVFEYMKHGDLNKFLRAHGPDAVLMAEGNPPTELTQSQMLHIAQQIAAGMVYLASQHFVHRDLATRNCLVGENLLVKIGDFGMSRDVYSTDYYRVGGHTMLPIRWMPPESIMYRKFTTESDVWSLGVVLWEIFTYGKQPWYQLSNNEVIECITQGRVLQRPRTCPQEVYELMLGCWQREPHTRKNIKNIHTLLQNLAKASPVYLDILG
T3 sequence (P07949 29-1114): as the sequence (P07949 29-1114) above

In the case of `CCN(CC)S(=O)(=O)c1ccc(OC)c(N2CCN(C(=O)c3ccc(F)cc3C(F)(F)F)CC2)c1` [BT13], the “efficacy, fold induction of luciferase above baseline” value (GFRα3/RET) was 8.9 fold, the pEC50 (GFRα3/RET; 0.1–50 μM, read-out: EC50, luciferase activation) was 4.69 and the “activation of luciferase reporter” value (TrkB) was “did not activate luciferase”. For the same compound, the “RET phosphorylation (170 kD mature glycosylated form), Western blotting” value (RET) was “elicited phosphorylation”, the “Akt and Erk phosphorylation” value [1] was “no Akt or Erk phosphorylation was observed” and the pIC50 (CYP2C9) was under 4.00. For the same compound, the pIC50 (CYP2D6) was under 4.00, the inhibition at 1 µM (cannabinoid receptor CB1) was 9% and the inhibition at 1 µM (dopamine receptor D2L) was -3%. The inhibition at 1 µM (GABA receptor GABAB(1b)) was -2%, the inhibition at 1 µM (histamine receptor H1) was 5% and the inhibition at 1 µM [2] was 3%. For the same compound, the inhibition at 1 µM [3] was 5%, the inhibition at 1 µM [4] was 4% and the “mRNA level of RET in DRGs” value (RET mRNA in DRGs) was “no difference”. For the same compound, the “solubility in the binding buffer” value [5] was “poor solubility” and the inhibition at 1 µM [6] was -5%.
